Experimental data from US8557764B2, “Methods of modulating immune function” (The Regents of the University of Colorado, a body corporate, priority 2007, dated 2013).
No end group written: not given here. *: point of attachment. Biotin = O=C1N[C@H]2[C@H](CS[C@H]2CCCCC(=O)*)N1

Assays:
[1] = system: cell surface CD74 on Raji or Daudi cells; experiment: MKN1 (bioCLIP) effect on cell surface CD74 levels (flow cytometry); assay type: cell-based, human; details: 24 and 48 hours
Experimental: (§1) The ability of MKN1 (bioCLIP) to alter cell surface CLIP and CD74 levels was determined using Raji or Daudi cells.
(§2) Data were analyzed by histogram with Y axis represents cell number of the 5000 live cells versus the X axis which is a reflection of relative FITC fluorescence with either antibodies to CLIP or CD74. The distance between the histogram from the isotype control staining versus the histogram reflecting the specific stain and is a measure of level of cell surface CLIP or CD74 when staining a population of live Raji or Daudi cells.
(§3) Cell Culture Conditions: The Raji and Daudi cell lines were purchased from American Type Culture Collection, were thawed, and grown in RPMI 1640 medium supplemented with standard supplements, including 10% fetal calf serum, gentamycin, penicillin, streptomycin, sodium pyruvate, HEPES buffer, 1-glutamine, and 2-ME.
(§4) Protocol: Cells were plated into a 12 well plate with 3 mls total volume containing approximately 0.5×10^6/mL for Daudi cells and 0.5×10^6/mL for Raji cells. […]
(§5) Harvested cells were stained using standard staining procedure that called for a 1:100 dilution of Fitc-anti-human CLIP or CD74 antibody (Fitc, Pharmingen, Cat #554647) or isotype control. […] Samples were acquired and analyzed on a Coulter Excel Flow Cytometer.

[2] = system: cell surface CLIP on Raji or Daudi cells; experiment: MKN1 (bioCLIP) effect on cell surface CLIP levels (flow cytometry); assay type: cell-based, human; details: 24 and 48 hours
Experimental: as §1, §2, §3, §4, §5

[3] = system: cell surface CD1d on Raji and Daudi cells; experiment: Cell surface expression of CD1d after competing peptide treatment (flow cytometry); assay type: cell-based, human; details: 50 microMolar, both cell lines
Experimental: (§6) The ability of synthetic peptides to compete with binding of CLIP peptides and result in the cell surface expression of CD1d was determined.
(§7) Results: The results shown in FIG. 5 are expressed in histogram analyses. The Y axis represents cell number of the 5000 live cells versus the X axis which is a reflection of relative Fitc fluorescence versus Streptavidin-PE (eBioscience, Cat. #12-4317) that will bind with high affinity to cell-bound biotinylated peptides. The distance between the histogram from the isotype control staining versus the histogram reflecting the specific stain and is a measure of level of cell surface CD1d.
as §3
(§8) Protocol: Cells were plated into a 12 well plate with 3 mls total volume containing approximately 1.5×10^6/well for Daudi cells and 3.0×10^6/well for Raji cells. Treatment groups included no treatment as control and biotinylated […] […]
(§9) Harvested cells were stained using standard staining procedure that called for a 1:100 dilution of PE anti-CD1d. […] Samples were acquired and analyzed on a Coulter Excel Flow Cytometer.

[4] = system: human B cell lines, Raji and Daudi; experiment: Binding of biotinylated synthetic peptide to B cell lines (Streptavidin-PE flow cytometry); assay type: cell-based; details: 50 microMolar
Experimental: as §6, §7, §3, §8, §9

[5] = relative to cyclosporin; cited from earlier work

## MKN1: 19 mer, Biotin at N-Terminal = Biotinylated CLIP; SGG GSK MRM ATP LLM QAL Y (SEQ ID NO. 5) (Biotin-SGGGSKMRMATPLLMQALY)
[1]
  cell surface CD74 levels: alters
[2]
  cell surface CLIP levels: alters

## Biotinylated FRIMAVLAS: biotinylated synthetic peptide FRIMAVLAS (SEQ ID NO. 2), also referred to as MKN 5 (also: biotinylated)
[3]; 4 hours
  cell surface expression of CD1d: marginally
[3]; 24 hours
  cell surface expression of CD1d: slightly more
[4]; 4 hours, Raji and Daudi
  binding of biotinylated peptide to the cell lines: bound with high affinity
[4]; 24 hours
  binding of biotinylated peptide to the cell lines: Less binding

## C=CC[C@@H]1/C=C(\C)C[C@H](C)C[C@H](OC)[C@H]2O[C@@](O)(C(=O)C(=O)N3CCCC[C@H]3C(=O)O[C@H](/C(C)=C/[C@@H]3CC[C@@H](O)[C@H](OC)C3)[C@H](C)[C@@H](O)CC1=O)[C@H](C)C[C@@H]2OC [FK506, tacrolimus]
[5]
  immunosuppressive activity greater than cyclosporin: 10-100 times
